In brackets after ≈: the same amount, converted by molar mass.
Test: pH dependent solubility of Compound A
Format: physicochemical
Excerpt: The pH dependent solubility and potential rapid release in the stomach of Compound A causes difficulties in the formulation or oral dosage forms. It is desirable that release is controlled to take place over a period of hours. Such a formulation would require dosing only once a day, and this is likely to improve patient compliance.

CN(CCOc1ccc(CC2SC(=O)NC2=O)cc1)c1ccccn1 (centres unmarked) [Compound A, 5-[4-[2-(N-methyl-N-(2 pyridyl)amino)ethoxy]benzyl]thiazolidine-2,4-dione]
solubility (aqueous buffer, pH 7, near neutral pH of the small intestine): ~80 µg/mL (≈ 0.224 mM) | solubility (simulated gastric fluid, pH 2, acidic regions associated with the stomach): ~5000 µg/mL (≈ 14 mM)

Source: patent US20070141146A1, “Novel compositions” (SMITHKLINE BEECHAM PHARMCO PUERTO RICO INCORPORATE, priority 2003, published 2007)
